From ChEMBL document CHEMBL4411322 (J Med Chem, 2019) come the findings set out here.

Calls of active or inactive are those of the source. The calls are words filed in the database; no cut-off is given here. Non-standard residues stand in square brackets, D forms with d. Residues, ends and D or L forms follow the SMILES beside them. Groups on a side chain read outwards from the residue. *: point of attachment. BODIPY(FL) = CC1=CC(C)=[N+]2C1=Cc1ccc(CCC(=O)*)n1[B-]2(F)F; NMeK = CN[C@@H](CCCCN)C(=O)O; Ahx = NCCCCCC(=O)O Some results are limits rather than exact numbers.

A word on the IC50: it is the concentration that inhibits the measured activity by half.

Data set [1] deals with T1, Integrin alpha-V/beta-8 (Homo sapiens, UniProt P06756+P26012). Nature of the data set: Inhibition of LAP binding to human integrin alphavbeta8 receptor after 1 hr by solid-phase binding assay. It is filed as protein-complex assay. Conditions: read-out: IC50.
The target of data set [2] is Integrin alpha-V/beta-3 (Homo sapiens, UniProt P05106+P06756). Nature of the data set: Inhibition of human vitronectin binding to human integrin alphavbeta3 receptor after 1 hr by solid-phase binding assay. Type of data set: protein-complex assay.
Sequence of Integrin alpha-V/beta-3 (P05106 27-788 limits assumed): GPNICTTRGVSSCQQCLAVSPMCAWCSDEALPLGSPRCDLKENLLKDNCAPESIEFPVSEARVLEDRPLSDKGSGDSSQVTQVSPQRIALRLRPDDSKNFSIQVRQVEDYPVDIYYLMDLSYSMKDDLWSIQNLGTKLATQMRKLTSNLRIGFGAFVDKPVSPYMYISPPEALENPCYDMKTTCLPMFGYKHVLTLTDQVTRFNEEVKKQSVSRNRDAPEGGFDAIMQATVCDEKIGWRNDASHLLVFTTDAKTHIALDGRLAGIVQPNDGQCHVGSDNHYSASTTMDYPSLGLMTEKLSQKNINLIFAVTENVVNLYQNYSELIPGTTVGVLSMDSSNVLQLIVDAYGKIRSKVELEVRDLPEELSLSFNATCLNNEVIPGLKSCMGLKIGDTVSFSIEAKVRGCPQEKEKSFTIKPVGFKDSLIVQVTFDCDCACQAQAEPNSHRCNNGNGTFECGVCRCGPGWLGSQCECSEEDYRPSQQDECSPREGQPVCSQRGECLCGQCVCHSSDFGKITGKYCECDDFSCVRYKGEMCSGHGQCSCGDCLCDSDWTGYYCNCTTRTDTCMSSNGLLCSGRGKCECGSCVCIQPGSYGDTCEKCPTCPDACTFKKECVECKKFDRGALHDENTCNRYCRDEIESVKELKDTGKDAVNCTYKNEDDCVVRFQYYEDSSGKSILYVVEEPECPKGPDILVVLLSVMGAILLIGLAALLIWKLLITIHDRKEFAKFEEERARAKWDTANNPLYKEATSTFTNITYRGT
Sequence of Integrin alpha-V/beta-3 (P06756 31-889 limits assumed): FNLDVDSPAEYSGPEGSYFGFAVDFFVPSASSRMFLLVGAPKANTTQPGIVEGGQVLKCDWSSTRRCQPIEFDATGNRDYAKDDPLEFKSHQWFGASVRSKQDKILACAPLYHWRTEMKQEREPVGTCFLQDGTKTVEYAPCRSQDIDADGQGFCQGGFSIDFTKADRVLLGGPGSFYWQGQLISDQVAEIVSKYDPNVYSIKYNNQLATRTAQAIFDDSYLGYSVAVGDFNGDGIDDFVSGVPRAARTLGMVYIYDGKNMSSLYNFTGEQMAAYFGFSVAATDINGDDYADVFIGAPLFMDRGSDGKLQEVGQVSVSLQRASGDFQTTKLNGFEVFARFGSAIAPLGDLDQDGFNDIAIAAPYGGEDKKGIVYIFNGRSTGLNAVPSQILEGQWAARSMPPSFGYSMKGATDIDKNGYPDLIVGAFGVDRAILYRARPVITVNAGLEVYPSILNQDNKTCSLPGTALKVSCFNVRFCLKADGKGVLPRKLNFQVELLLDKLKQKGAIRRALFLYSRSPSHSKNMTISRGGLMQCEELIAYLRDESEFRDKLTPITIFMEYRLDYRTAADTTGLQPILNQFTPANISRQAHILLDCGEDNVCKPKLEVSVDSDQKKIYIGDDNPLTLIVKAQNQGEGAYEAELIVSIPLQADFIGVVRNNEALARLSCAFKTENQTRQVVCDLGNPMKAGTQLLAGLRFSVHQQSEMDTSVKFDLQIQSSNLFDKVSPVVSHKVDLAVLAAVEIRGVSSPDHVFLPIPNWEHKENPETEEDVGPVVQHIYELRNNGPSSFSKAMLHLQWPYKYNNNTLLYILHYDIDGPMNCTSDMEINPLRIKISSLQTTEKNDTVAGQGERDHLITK
Sequence of Integrin alpha-V/beta-3 (P06756 891-1048 limits assumed): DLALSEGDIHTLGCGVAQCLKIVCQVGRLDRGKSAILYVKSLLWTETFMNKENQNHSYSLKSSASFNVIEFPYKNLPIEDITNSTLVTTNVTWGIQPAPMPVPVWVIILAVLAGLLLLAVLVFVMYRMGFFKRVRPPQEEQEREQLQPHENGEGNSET
Data set [3] concerns the target Integrin alpha-IIb/beta-3 (Homo sapiens, UniProt P05106+P08514). Nature of the data set: Inhibition of human fibrinogen binding to human platelet integrin alpha2b-beta3 receptor after 1 hr by solid-phase binding assay.
For data set [4], the species on record is Homo sapiens. Put plainly: Selectivity ratio of IC50 for human integrin alphavbeta6 receptor to IC50 for human integrin alphavbeta8 receptor.
Data set [5] addresses Integrin alpha-5/beta-1 (Homo sapiens, UniProt P05556+P08648). Nature of the data set: Inhibition of human fibronectin binding to human integrin alpha5beta1 receptor after 1 hr by solid-phase binding assay. Type of data set: protein-complex assay.
Data set [6] addresses Integrin alpha-V/beta-6 (Homo sapiens, UniProt P06756+P18564). Put plainly: Inhibition of LAP binding to human integrin alphavbeta6 receptor after 1 hr by solid-phase binding assay. Type of data set: protein-complex assay. Conditions: read-out: IC50.
Data set [7] can be described thus: Stability in 90% human serum assessed as drug degradation at 1 mM after 180 mins by HPLC analysis. Type of data set: ADME, cell-free. The settings on record: 3 h, 1000 µM.
Data set [8] addresses Integrin alpha-V/beta-5 (Homo sapiens, UniProt P06756+P18084). Nature of the data set: Inhibition of human vitronectin binding to human integrin alphavbeta5 receptor after 1 hr by solid-phase binding assay. Type of data set: protein-complex assay.
Data set [9] can be described thus: Stability in 90% human serum assessed as drug degradation at 1 mM after 60 mins by HPLC analysis. It is filed as ADME, cell-free. Conditions: read-out: Drug degradation.
The nature of data set [10]: Stability in 90% human serum assessed as drug degradation at 1 mM after 15 mins by HPLC analysis. It is filed as ADME, cell-free. Conditions: read-out: Drug degradation.
Data set [11] deals with T1, Integrin alpha-V/beta-8. Nature of the data set: Binding affinity to alphavbeta8 in TGF-beta1 stimulated human HN cells assessed as fluorescence intensity at 10 uM after 1 hr using in presence of 10 to 20 molar excess peptide 2 by immunocytochemical analysis relative to control.
Data set [12] has as its target T1, Integrin alpha-V/beta-8. Put plainly: Binding affinity to alphavbeta8 in TGF-beta1 stimulated human REC cells assessed as fluorescence intensity at 10 uM after 1 hr using fluorescence-labeled compound by immunocytochemical analysis.
In data set [13] the target is T1, Integrin alpha-V/beta-8. Nature of the data set: Binding affinity to alphavbeta8 in TGF-beta1 stimulated human BHY cells assessed as fluorescence intensity at 10 uM after 1 hr using fluorescence-labeled compound in presence of 10 molar excess peptide 1a by immunocytochemical analysis. Type of data set: cell-based.
For data set [14], the target named is T1, Integrin alpha-V/beta-8. Put plainly: Binding affinity to alphavbeta8 in human BHY cells assessed as fluorescence intensity at 10 uM after 1 hr using BDP FL-labeled compound by immunocytochemical analysis. It is filed as cell-based.
In data set [15] the target is T1, Integrin alpha-V/beta-8. Put plainly: Binding affinity to alphavbeta8 in TGF-beta1 stimulated human BHY cells assessed as fluorescence intensity at 10 uM after 1 hr using in presence of 5 to 100 molar excess peptide 1a by immunocytochemical analysis relative to control. Type of data set: cell-based.
In data set [16] the target is T1, Integrin alpha-V/beta-8. Nature of the data set: Binding affinity to alphavbeta8 in TGF-beta1 stimulated human BHY cells assessed as fluorescence intensity at 10 uM after 1 hr using fluorescence-labeled compound in presence of 10 molar excess peptide 2 by immunocytochemical analysis. Type of data set: cell-based.
Data set [17] addresses T1, Integrin alpha-V/beta-8. Nature of the data set: Binding affinity to alphavbeta8 in human REC cells assessed as fluorescence intensity at 10 uM after 1 hr using BDP FL-labeled compound by immunocytochemical analysis. It is filed as cell-based.
Data set [18] concerns the target T1, Integrin alpha-V/beta-8. Nature of the data set: Binding affinity to alphavbeta8 in human HN cells assessed as fluorescence intensity at 10 uM after 1 hr using BDP FL-labeled compound by immunocytochemical analysis. It is filed as cell-based.

Sequence of Integrin alpha-5/beta-1 (P05556 21-798 limits assumed): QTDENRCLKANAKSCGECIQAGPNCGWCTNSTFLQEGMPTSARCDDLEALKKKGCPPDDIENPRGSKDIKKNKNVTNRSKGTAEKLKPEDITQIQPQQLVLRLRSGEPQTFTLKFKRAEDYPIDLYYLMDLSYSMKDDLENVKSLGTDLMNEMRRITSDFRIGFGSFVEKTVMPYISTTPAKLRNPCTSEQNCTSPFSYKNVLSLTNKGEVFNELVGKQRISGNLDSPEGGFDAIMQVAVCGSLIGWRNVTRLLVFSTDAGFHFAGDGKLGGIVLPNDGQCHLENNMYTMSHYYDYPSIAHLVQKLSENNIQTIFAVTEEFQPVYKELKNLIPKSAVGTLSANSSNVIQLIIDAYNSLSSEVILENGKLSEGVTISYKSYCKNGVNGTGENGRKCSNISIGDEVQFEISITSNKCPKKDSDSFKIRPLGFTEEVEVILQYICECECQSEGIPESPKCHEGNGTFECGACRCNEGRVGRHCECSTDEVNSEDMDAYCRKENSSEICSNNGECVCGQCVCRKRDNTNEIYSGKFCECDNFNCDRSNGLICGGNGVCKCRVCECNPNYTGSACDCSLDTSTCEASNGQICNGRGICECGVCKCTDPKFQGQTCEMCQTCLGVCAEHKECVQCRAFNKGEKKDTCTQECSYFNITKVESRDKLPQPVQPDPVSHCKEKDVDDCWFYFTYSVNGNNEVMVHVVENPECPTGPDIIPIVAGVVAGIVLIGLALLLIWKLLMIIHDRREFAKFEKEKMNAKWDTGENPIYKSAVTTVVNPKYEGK
Sequence of Integrin alpha-5/beta-1 (P08648 42-894 limits assumed): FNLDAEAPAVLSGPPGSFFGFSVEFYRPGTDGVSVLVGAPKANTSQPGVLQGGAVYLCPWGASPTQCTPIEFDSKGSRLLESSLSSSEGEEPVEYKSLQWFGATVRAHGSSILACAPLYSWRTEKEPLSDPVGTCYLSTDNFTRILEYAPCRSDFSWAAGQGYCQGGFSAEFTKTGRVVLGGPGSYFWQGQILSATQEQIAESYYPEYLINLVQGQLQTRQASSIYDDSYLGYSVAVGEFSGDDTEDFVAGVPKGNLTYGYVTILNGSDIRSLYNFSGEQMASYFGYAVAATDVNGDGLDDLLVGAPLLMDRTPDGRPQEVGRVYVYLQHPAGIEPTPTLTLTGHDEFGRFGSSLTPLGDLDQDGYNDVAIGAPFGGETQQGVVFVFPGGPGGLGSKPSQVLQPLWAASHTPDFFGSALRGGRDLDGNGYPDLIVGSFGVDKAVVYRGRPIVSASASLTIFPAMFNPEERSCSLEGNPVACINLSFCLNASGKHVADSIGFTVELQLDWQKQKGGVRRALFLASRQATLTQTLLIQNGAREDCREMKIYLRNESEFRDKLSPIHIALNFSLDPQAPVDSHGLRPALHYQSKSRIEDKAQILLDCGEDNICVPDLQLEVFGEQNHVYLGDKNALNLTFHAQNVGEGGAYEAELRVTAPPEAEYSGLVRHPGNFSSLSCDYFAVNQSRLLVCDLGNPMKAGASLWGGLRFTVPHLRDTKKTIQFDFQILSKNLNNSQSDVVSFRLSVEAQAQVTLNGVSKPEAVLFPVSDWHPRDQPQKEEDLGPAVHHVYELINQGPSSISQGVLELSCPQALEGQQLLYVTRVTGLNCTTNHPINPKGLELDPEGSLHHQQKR
Sequence of Integrin alpha-5/beta-1 (P08648 895-1049 limits assumed): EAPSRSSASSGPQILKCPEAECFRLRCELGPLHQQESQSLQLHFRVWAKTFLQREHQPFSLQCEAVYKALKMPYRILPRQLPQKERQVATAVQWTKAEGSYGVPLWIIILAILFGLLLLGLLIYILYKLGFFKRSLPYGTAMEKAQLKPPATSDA
Sequence of Integrin alpha-IIb/beta-3 (P05106 27-788 limits assumed): as the sequence (P05106 27-788 limits assumed) above
Sequence of Integrin alpha-IIb/beta-3 (P08514 32-887 limits assumed): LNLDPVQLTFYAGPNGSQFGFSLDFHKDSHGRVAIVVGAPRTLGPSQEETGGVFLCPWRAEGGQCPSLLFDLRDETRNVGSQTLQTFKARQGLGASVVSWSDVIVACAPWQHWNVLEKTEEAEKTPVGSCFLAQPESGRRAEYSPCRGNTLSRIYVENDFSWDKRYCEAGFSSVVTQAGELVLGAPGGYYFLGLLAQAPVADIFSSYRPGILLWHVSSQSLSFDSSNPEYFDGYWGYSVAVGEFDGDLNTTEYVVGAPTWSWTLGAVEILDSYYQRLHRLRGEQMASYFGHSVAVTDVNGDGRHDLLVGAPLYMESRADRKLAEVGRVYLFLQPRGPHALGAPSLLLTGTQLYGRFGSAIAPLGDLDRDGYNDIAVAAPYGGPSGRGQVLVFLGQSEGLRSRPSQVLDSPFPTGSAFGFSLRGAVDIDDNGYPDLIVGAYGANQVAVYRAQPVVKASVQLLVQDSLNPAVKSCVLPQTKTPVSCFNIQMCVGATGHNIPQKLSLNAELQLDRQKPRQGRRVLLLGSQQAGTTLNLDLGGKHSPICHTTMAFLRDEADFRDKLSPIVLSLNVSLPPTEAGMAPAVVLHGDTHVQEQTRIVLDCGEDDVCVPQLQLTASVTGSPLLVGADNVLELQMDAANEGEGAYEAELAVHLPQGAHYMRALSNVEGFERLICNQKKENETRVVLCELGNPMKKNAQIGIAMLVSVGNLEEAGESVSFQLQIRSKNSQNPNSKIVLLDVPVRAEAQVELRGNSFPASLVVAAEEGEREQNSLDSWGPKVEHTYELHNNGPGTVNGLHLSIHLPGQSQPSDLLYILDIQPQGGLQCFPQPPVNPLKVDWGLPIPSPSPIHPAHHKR
Sequence of Integrin alpha-IIb/beta-3 (P08514 891-1039 limits assumed): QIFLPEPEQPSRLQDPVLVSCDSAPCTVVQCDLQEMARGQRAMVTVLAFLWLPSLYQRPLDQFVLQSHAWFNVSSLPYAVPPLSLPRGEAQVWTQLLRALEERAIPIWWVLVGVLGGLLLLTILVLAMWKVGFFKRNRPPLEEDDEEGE

On to `CC(=O)NCCCC[C@H]1C(=O)NCC(=O)N[C@@H](CC(C)C)C(=O)N[C@@H](CCCNC(=N)N)C(=O)NCC(=O)N[C@@H](CC(=O)O)C(=O)N[C@@H](CC(C)C)C(=O)N2CCC[C@@H]2C(=O)N1C` (cyclo(RGDL[dP][NMeK](Ac)GL)), for which the IC50 in data set [1] is 8 nM; in [2], 343 nM; in data set [3], above 1000 nM; in data set [5], above 1000 nM; in data set [6], 99 nM; in [8], above 1000 nM. Also, the Ratio IC50 in data set [4] is 12. Also, the Stability entry in data set [7] is on record as “Stable”.
As to `CC(C)C[C@H](NC(=O)[C@H](CO)NC(=O)[C@H](CC(=O)O)NC(=O)[C@H](CC(C)C)NC(=O)[C@H](CC(=O)O)NC(=O)[C@@H](NC(=O)[C@@H](N)CCCNC(=N)N)[C@@H](C)O)C(=O)N[C@@H](CCCNC(=N)N)C(=O)N[C@H](C(=O)O)[C@@H](C)O`, the metabolised at 1 h, 1000 µM in data set [9] was determined as 100%. Further, in [10], the metabolised at 0.25 h, 1000 µM turned out to be 56%.
Take `CC1=CC(C)=[N+]2C1=Cc1ccc(CCC(=O)NCCCCCC(=O)NCCCC[C@H]3C(=O)NCC(=O)N[C@@H](CC(C)C)C(=O)N[C@@H](CCCNC(=N)N)C(=O)NCC(=O)N[C@@H](CC(=O)O)C(=O)N[C@@H](CC(C)C)C(=O)N4CCC[C@@H]4C(=O)N3C)n1[B-]2(F)F` (cyclo(RGDL[dP][NMeK]([Ahx-BODIPY(FL)])GL)): in data set [11], the Activity came out at 50%. The outcome in data set [12], in data set [14], in data set [17] and in data set [18] was Active. Further, the result in data set [13], in data set [15] and in [16] was inactive. The IC50 is 0.06 nM in [1]; 43 nM in [2]; above 1000 nM in data set [3]; 689 nM in data set [5]; 47 nM in [6]; above 1000 nM in [8].
